Results taken from publication PMC12150326 (The Journal of Organic Chemistry, 2025).
Read-outs that look alike come from different tables or passages of the source.

Key:
SNB-75 = type: cell-based, human
Description: (§1) (aR)-6, (aS)-6, (aS)-iso -6, and (aR)-iso -6 were submitted to the 60 Cell Screen panel and evaluated at 5 doses (100 μM, 10 μM, 1 μM, 0.1 μM, and 0.01 μM). […] The complete report from this submission is available at the publisher’s Web site as a separate Supporting Information file. For COMPARE analysis, TGI levels of response for (aR)-DM-MTC (6) and (aS)-iso-DM-MTC were compared to those of several established tubulin inhibitors previously tested in the NCI-60 screen.

CAKI-1 = type: cell-based, human
Description: as §1

IGROV1 = type: cell-based, human
Description: as §1

BT-549 = type: cell-based, human
Description: as §1

UACC-62 = type: cell-based, human
Description: as §1

SW-620 = type: cell-based, human
Description: as §1

HS 578T = type: cell-based, human
Description: as §1

HCT-15 = type: cell-based, human
Description: as §1

HCC-2998 = type: cell-based, human
Description: as §1

EKVX = type: cell-based, human
Description: as §1

A549/ATCC = type: cell-based, human
Description: as §1

M14 [1] = type: cell-based, human
Description: as §1

MDA-MB-435 = type: cell-based, human
Description: as §1

NCI-H226 = type: cell-based, human
Description: as §1

COLO 205 = type: cell-based, human
Description: as §1

SR = type: cell-based, human
Description: as §1

MALME-3M = type: cell-based, human
Description: as §1

OVCAR-4 = type: cell-based, human
Description: as §1

NCI-H460 = type: cell-based, human
Description: as §1

bovine brain tubulin = experiment: Tubulin polymerization inhibition; type: biochemical; details: 10 μM tubulin
Outline: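 10 μM tubulin incubated 30 min at 37 °C in polymerization-promoting buffer (1 M NaGlutamate, 0.1 M Mes, 1 mM MgCl2, 0.5 mM GTP, pH 6.9) with 3.3 or 33 μM compound. After 100,000g spin for 8 min, polymerization taken as pelletable protein lost from supernatant.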

[2] = molecular target: colchicine site of bovine brain tubulin; type: binding; details: tubulin binding constant, 25 °C
Description: Inhibition of this fluorescence increase was measured and converted to K d for the test compound as described.

M14 [3] = experiment: Cell-growth inhibition (CellTiter); type: cell-based, human; details: Homo sapiens, M14, 72 h, M14, 3 days; read-out: Cell Growth Inhibition GI50 ± SE
Outline: (§2)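 NCI-screen cell lines grown in DMEM with 10% FBS and exposed to serial compound dilutions for 3 days. Growth measured with CellTiter reagent, with growth inhibition derived per the manufacturer's method.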

PC3 = experiment: Cell-growth inhibition (CellTiter); type: cell-based, human; details: Homo sapiens, PC-3, 72 h, PC3, 3 days; read-out: Cell Growth Inhibition GI50 ± SE
Outline: as §2

A549 = experiment: Cell-growth inhibition (CellTiter); type: cell-based, human; details: Homo sapiens, A549, 72 h, A549, 3 days; read-out: Cell Growth Inhibition GI50 ± SE
Outline: as §2

Compound `COc1cc(C)c(-c2ccc(=O)c(OC)cc2C)c(OC)c1OC` (single isomer, unassigned) [(aS)-iso-6] has a Log10GI50 (SNB-75) of -5.27 Molar, a Log10LC50 (SNB-75) greater than -4.00 Molar and a Log10TGI (SNB-75) of -4.36 Molar. The GI50 (SNB-75; Homo sapiens) was 30.9 µM, the Log10GI50 (SNB-75; […]) was -4.51 Molar and the Log10GI50 (CAKI-1) was -4.71 Molar. For the same compound, the Log10LC50 (CAKI-1) was greater than -4.00 Molar, the Log10TGI (CAKI-1) was greater than -4.00 Molar and the GI50 (CAKI-1; Homo sapiens) was 19.5 µM. For the same compound, the Log10GI50 (CAKI-1; […]) was -4.71 Molar, the Log10GI50 (IGROV1) was -4.32 Molar and the Log10LC50 (IGROV1) was greater than -4.00 Molar. For the same compound, the Log10TGI (IGROV1) was greater than -4.00 Molar, the GI50 (IGROV1; Homo sapiens, IGROV-1) was 47.9 µM and the Log10GI50 (IGROV1; […]) was -4.32 Molar. The Log10GI50 (BT-549) was -4.82 Molar, the Log10LC50 (BT-549) was greater than -4.00 Molar and the Log10TGI (BT-549) was greater than -4.00 Molar. For the same compound, the GI50 (BT-549; Homo sapiens) was 15.1 µM, the Log10GI50 (BT-549; […]) was -4.82 Molar and the Log10GI50 (UACC-62) was -4.78 Molar. For the same compound, the Log10LC50 (UACC-62) was greater than -4.00 Molar, the Log10TGI (UACC-62) was greater than -4.00 Molar and the GI50 (UACC-62; Homo sapiens) was 16.6 µM. The Log10GI50 (UACC-62; […]) was -4.78 Molar, the Log10GI50 (SW-620) was -4.55 Molar and the Log10LC50 (SW-620) was greater than -4.00 Molar. The Log10TGI (SW-620) was greater than -4.00 Molar, the GI50 (SW-620; Homo sapiens) was 30.9 µM and the Log10GI50 (SW-620; […]) was -4.51 Molar. It also gave a Log10GI50 (HS 578T) of -4.80 Molar, a Log10LC50 (HS 578T) greater than -4.00 Molar and a Log10TGI (HS 578T) of -4.19 Molar. It also gave a GI50 (HS 578T; Homo sapiens) of 15.8 µM, a Log10GI50 (HS 578T; […]) of -4.8 Molar and a Log10GI50 (HCT-15) of -4.89 Molar. The Log10LC50 (HCT-15) was greater than -4.00 Molar, the Log10TGI (HCT-15) was greater than -4.00 Molar and the GI50 (HCT-15; Homo sapiens) was 12.9 µM. For the same compound, the Log10GI50 (HCT-15; […]) was -4.89 Molar, the Log10GI50 (HCC-2998) was -4.48 Molar and the Log10LC50 (HCC-2998) was greater than -4.00 Molar. The Log10TGI (HCC-2998) was greater than -4.00 Molar, the GI50 (HCC-2998; Homo sapiens) was 33.1 µM and the Log10GI50 (HCC-2998; […]) was -4.48 Molar. It also gave a Log10GI50 (EKVX) of -4.18 Molar, a Log10LC50 (EKVX) greater than -4.00 Molar and a Log10TGI (EKVX) greater than -4.00 Molar. The GI50 (EKVX; Homo sapiens) was 66.1 µM, the Log10GI50 (EKVX; […]) was -4.18 Molar and the Log10GI50 (A549/ATCC) was -4.45 Molar. The Log10LC50 (A549/ATCC) was greater than -4.00 Molar, the Log10TGI (A549/ATCC) was greater than -4.00 Molar and the GI50 (A549/ATCC; Homo sapiens) was 35.5 µM. For the same compound, the Log10GI50 (A549/ATCC; […]) was -4.45 Molar, the Log10GI50 (M14 [1]) was -4.76 Molar and the Log10LC50 (M14 [1]) was greater than -4.00 Molar. It also gave a Log10TGI (M14 [1]) greater than -4.00 Molar, a GI50 (M14 [1]; Homo sapiens) of 17.4 µM and a Log10GI50 (M14 [1]; […]) of -4.76 Molar. For the same compound, the Log10GI50 (MDA-MB-435) was -5.46 Molar, the Log10LC50 (MDA-MB-435) was greater than -4.00 Molar and the Log10TGI (MDA-MB-435) was -4.81 Molar. The GI50 (MDA-MB-435; Homo sapiens) was 3.47 µM, the Log10GI50 (MDA-MB-435; […]) was -5.46 Molar and the Log10GI50 (NCI-H226) was -4.06 Molar. The Log10LC50 (NCI-H226) was greater than -4.00 Molar, the Log10TGI (NCI-H226) was greater than -4.00 Molar and the GI50 (NCI-H226; Homo sapiens) was 87.1 µM. It also gave a Log10GI50 (NCI-H226; […]) of -4.06 Molar, a Log10GI50 (COLO 205) of -4.66 Molar and a Log10LC50 (COLO 205) greater than -4.00 Molar. The Log10TGI (COLO 205) was -4.23 Molar, the GI50 (COLO 205; Homo sapiens) was 21.9 µM and the Log10GI50 (COLO 205; […]) was -4.66 Molar. For the same compound, the Log10GI50 (SR) was -5.24 Molar, the Log10LC50 (SR) was greater than -4.00 Molar and the Log10TGI (SR) was greater than -4.00 Molar. The GI50 (SR; Homo sapiens) was 5.75 µM, the Log10GI50 (SR; […]) was -5.24 Molar and the Log10GI50 (MALME-3M) was -4.42 Molar. For the same compound, the Log10LC50 (MALME-3M) was greater than -4.00 Molar, the Log10TGI (MALME-3M) was greater than -4.00 Molar and the Log10GI50 (OVCAR-4) was -4.04 Molar. It also gave a Log10LC50 (OVCAR-4) greater than -4.00 Molar, a Log10TGI (OVCAR-4) greater than -4.00 Molar and a GI50 (OVCAR-4; Homo sapiens) of 91.2 µM. It also gave a Log10GI50 (OVCAR-4; […]) of -4.04 Molar, a Log10GI50 (NCI-H460) of -4.50 Molar and a Log10LC50 (NCI-H460) greater than -4.00 Molar. For the same compound, the Log10TGI (NCI-H460) was greater than -4.00 Molar, the GI50 (NCI-H460; Homo sapiens) was 31.6 µM and the Log10GI50 (NCI-H460; […]) was -4.5 Molar. For the same compound, the “Polymerization Inhibition (%) 3.3 μM” value (bovine brain tubulin; 3.3 μM compound) was 0%, the “Polymerization Inhibition (%) 33 μM” value (bovine brain tubulin; 33 μM compound) was 0% and the Kd [2] was “nb”. It also gave a GI50 (M14 [3]) greater than 20 µM, a GI50 (PC3) greater than 20 µM and a GI50 (A549) greater than 20 µM.
